Test results as given in ChEMBL document CHEMBL4725221, “Thiazoles, Their Benzofused Systems, and Thiazolidinone Derivatives: Versatile and Promising Tools to Combat Antibiotic Resistance” (J Med Chem, 2020).
Converted amounts (≈) assume the structure as drawn.

Key:
Staphylococcus aureus [1] = test: Antibacterial activity against Staphylococcus aureus ATCC 29213 by NCCLS protocol based broth microdilution method; format: functional
Staphylococcus aureus [2] = test: Antibacterial activity against Staphylococcus aureus MTCC 3160 after 24 hrs; format: functional
Escherichia coli [3] = test: Antibacterial activity against Escherichia coli MTCC 443 after 24 hrs; format: functional
Bacillus subtilis [4] = test: Antibacterial activity against Bacillus subtilis MTCC 441 after 24 hrs; format: functional
Staphylococcus aureus [5] = test: Antibacterial activity against methicillin resistant Staphylococcus aureus 090 by NCCLS protocol based broth microdilution method; format: functional
Escherichia coli [6] = test: Antibacterial activity against Escherichia coli ATCC 25922 after 20 hrs by cup plate method; format: functional
Staphylococcus aureus [7] = test: Antibacterial activity against Staphylococcus aureus ATCC 29213 after 20 hrs by cup plate method; format: functional
Enterococcus faecalis [8] = test: Antibacterial activity against Enterococcus faecalis ATCC 19433 by NCCLS protocol based broth microdilution method
Pseudomonas aeruginosa [9] = test: Antibacterial activity against Pseudomonas aeruginosa ATCC 15442 by CLSI protocol based cup-plate agar diffusion method; format: functional
Staphylococcus aureus [10] = test: Antibacterial activity against Staphylococcus aureus ATCC 6538 by CLSI protocol based microdilution method; format: functional, organism-based
Staphylococcus aureus [11] = test: Antibacterial activity against Staphylococcus aureus ATCC 25923 by CLSI protocol based microdilution method; format: functional, organism-based
Klebsiella pneumoniae = test: Antibacterial activity against Klebsiella pneumoniae; format: functional
Pseudomonas aeruginosa [12] = test: Antibacterial activity against Pseudomonas aeruginosa; format: functional
Bacillus subtilis [13] = test: Antibacterial activity against Bacillus subtilis; format: functional
Staphylococcus aureus [14] = test: Antibacterial activity against Staphylococcus aureus; format: functional
Bacillus subtilis [15] = test: Antibacterial activity against Bacillus subtilis ATCC 10400 after 20 hrs by cup plate method; format: functional
Enterococcus faecalis [16] = test: Antibacterial activity against Enterococcus faecalis ATCC 29212 after 20 hrs by cup plate method; format: functional

O=[N+]([O-])c1ccc2nc(S)sc2c1 showed an MIC (Staphylococcus aureus [1]) of 12.5 µg/mL (≈ 58.9 µM).

Work on O=C(CNC(=O)c1ccccc1)NN1C(=O)CSC1c1ccccc1Cl (configuration not stated) yielded an MIC (Staphylococcus aureus [2]) of 12.5 µg/mL (≈ 32.1 µM), an MIC (Escherichia coli [3]) of 6.24 µg/mL (≈ 16 µM) and an MIC (Bacillus subtilis [4]) of 6.24 µg/mL (≈ 16 µM).

COc1ccc(/C=N/Nc2nc3cccc(C)c3s2)c(OC)c1 was tested, and the MIC (Staphylococcus aureus [5]) was 22 µg/mL (≈ 67.2 µM).

For Cc1cccc2nc(N/N=C/c3ccc(O)cc3O)sc12, the MIC (Staphylococcus aureus [5]) was 20 µg/mL (≈ 66.8 µM).

For Cc1cccc2nc(N/N=C/c3cc(O)c(O)c(O)c3)sc12, the MIC (Staphylococcus aureus [5]) was 18 µg/mL (≈ 57.1 µM).

Work on O=C(CNC(=O)c1ccccc1)NN1C(=O)CSC1c1ccc(Br)cc1 (configuration not stated) yielded an MIC (Staphylococcus aureus [2]) of 6.51 µg/mL (≈ 15 µM), an MIC (Escherichia coli [3]) of 12.2 µg/mL (≈ 28 µM) and an MIC (Bacillus subtilis [4]) of 47.8 µg/mL (≈ 110 µM).

With COc1ccc(-c2n[nH]c(N3C(=O)CS[C@H]3c3ccc(C)cc3)n2)cc1 the MIC (Escherichia coli [6]) was 32 µg/mL (≈ 87.3 µM) and the MIC (Staphylococcus aureus [7]) was 64 µg/mL (≈ 175 µM).

With O=C(CNC(=O)c1ccccc1)NN1C(=O)CSC1c1cccc([N+](=O)[O-])c1 (configuration not stated) the MIC (Staphylococcus aureus [2]) was 25.2 µg/mL (≈ 63 µM), the MIC (Escherichia coli [3]) was 25.2 µg/mL (≈ 63 µM) and the MIC (Bacillus subtilis [4]) was 12.4 µg/mL (≈ 31 µM).

Cl.Cl.Nc1ccc2sc(NC(=O)c3sc4cc(N)ccc4c3Cl)nc2c1 gave an MIC (Enterococcus faecalis [8]) of 16 µg/mL.

Compound COc1ccc(-c2n[nH]c(N3C(=O)CS[C@H]3c3ccc(OC)cc3)n2)cc1 has an MIC (Escherichia coli [6]) of 6 µg/mL (≈ 15.7 µM) and an MIC (Staphylococcus aureus [7]) of 128 µg/mL (≈ 335 µM).

COc1ccc(-c2n[nH]c(N3C(=O)CS[C@H]3c3ccc(F)cc3)n2)cc1 showed an MIC (Escherichia coli [6]) of 64 µg/mL (≈ 173 µM) and an MIC (Staphylococcus aureus [7]) of 128 µg/mL (≈ 346 µM).

FC(F)(F)c1ccc2nc(S)sc2c1 was tested, and the MIC (Staphylococcus aureus [1]) was 3.12 µg/mL (≈ 13.3 µM).

COCCn1cc(-c2nc(-c3cn(C)c4ccccc34)cs2)c2cc(Br)ccc21 showed an MIC (Pseudomonas aeruginosa [9]) of 19.1 µg/mL (≈ 41 µM), an IC50 (Staphylococcus aureus [10]) of 11.2 µg/mL (≈ 24 µM) and an IC50 (Staphylococcus aureus [11]) of 0.95 µg/mL (≈ 2.04 µM).

With Fc1ccc(-c2csc(-n3nc(-c4ccc(F)cc4)cc3-c3cc4ccccc4[nH]3)n2)cc1 the MIC (Klebsiella pneumoniae) was 25 µg/mL (≈ 55 µM), the MIC (Pseudomonas aeruginosa [12]) was 25 µg/mL (≈ 55 µM) and the MIC (Bacillus subtilis [13]) was 50 µg/mL (≈ 110 µM). For the same compound, the MIC (Staphylococcus aureus [14]) was 50 µg/mL (≈ 110 µM).

In the case of COc1ccc(-c2n[nH]c(N3C(=O)CS[C@H]3c3ccc(Cl)cc3)n2)cc1, the MIC (Escherichia coli [6]) is reported as 16 µg/mL (≈ 41.4 µM), the MIC (Bacillus subtilis [15]) is reported as 16 µg/mL (≈ 41.4 µM) and the MIC (Staphylococcus aureus [7]) is reported as 8 µg/mL (≈ 20.7 µM). It also gave an MIC (Enterococcus faecalis [16]) of 16 µg/mL (≈ 41.4 µM).

COCCn1cc(-c2nc(-c3c[nH]c4ccccc34)cs2)c2cc(Br)ccc21 showed an MIC (Pseudomonas aeruginosa [9]) of 4.4 µg/mL (≈ 9.73 µM), an IC50 (Staphylococcus aureus [10]) of 9.4 µg/mL (≈ 20.8 µM) and an IC50 (Staphylococcus aureus [11]) of 0.79 µg/mL (≈ 1.75 µM).

Nc1ccc2c(Cl)c(C(=O)Nc3nc4ccccc4s3)sc2c1 gave an MIC (Enterococcus faecalis [8]) of 8 µg/mL (≈ 22.2 µM).

Cl.Nc1ccc2c(Cl)c(C(=O)Nc3nc4ccccc4s3)sc2c1 gave an MIC (Enterococcus faecalis [8]) of 16 µg/mL.

COc1ccc(-c2n[nH]c(N3C(=O)CS[C@H]3c3ccc([N+](=O)[O-])cc3)n2)cc1 was tested, and the MIC (Escherichia coli [6]) was 32 µg/mL (≈ 80.5 µM) and the MIC (Staphylococcus aureus [7]) was 16 µg/mL (≈ 40.3 µM).

Cl.Nc1ccc2sc(NC(=O)c3sc4ccccc4c3Cl)nc2c1 showed an MIC (Enterococcus faecalis [8]) of 8 µg/mL.

Cn1cc(-c2csc(-c3cn(CCN)c4ccc(F)cc34)n2)c2ccccc21 showed an MIC (Pseudomonas aeruginosa [9]) of 3.9 µg/mL (≈ 9.99 µM), an IC50 (Staphylococcus aureus [10]) of 5.2 µg/mL (≈ 13.3 µM) and an IC50 (Staphylococcus aureus [11]) of 0.5 µg/mL (≈ 1.28 µM).

In the case of O=C(Nc1nc2ccccc2s1)c1sc2cc([N+](=O)[O-])ccc2c1Cl, the MIC (Enterococcus faecalis [8]) is reported as 16 µg/mL (≈ 41 µM).

NCCn1cc(-c2nc(-c3c[nH]c4ccccc34)cs2)c2cc(Br)ccc21 was tested, and the MIC (Pseudomonas aeruginosa [9]) was 7.8 µg/mL (≈ 17.8 µM), the IC50 (Staphylococcus aureus [10]) was 3.3 µg/mL (≈ 7.55 µM) and the IC50 (Staphylococcus aureus [11]) was 4.4 µg/mL (≈ 10.1 µM).

In the case of CCN(CC)c1ccc(C2SCC(=O)N2NC(=O)CNC(=O)c2ccccc2)cc1 (configuration not stated), the MIC (Staphylococcus aureus [2]) is reported as 12.4 µg/mL (≈ 29 µM), the MIC (Escherichia coli [3]) is reported as 3.07 µg/mL (≈ 7.2 µM) and the MIC (Bacillus subtilis [4]) is reported as 12.4 µg/mL (≈ 29 µM).

In the case of Cc1ccc(C2SCC(=O)N2NC(=O)CNC(=O)c2ccccc2)cc1 (configuration not stated), the MIC (Staphylococcus aureus [2]) is reported as 12.6 µg/mL (≈ 34 µM), the MIC (Escherichia coli [3]) is reported as 12.6 µg/mL (≈ 34 µM) and the MIC (Bacillus subtilis [4]) is reported as 12.6 µg/mL (≈ 34 µM).

O=[N+]([O-])c1ccc(-c2cc(-c3cc4ccccc4[nH]3)n(-c3nc(-c4ccc(F)cc4)cs3)n2)cc1 showed an MIC (Klebsiella pneumoniae) of 12.5 µg/mL (≈ 26 µM), an MIC (Pseudomonas aeruginosa [12]) of 6.25 µg/mL (≈ 13 µM) and an MIC (Bacillus subtilis [13]) of 25 µg/mL (≈ 51.9 µM). It also gave an MIC (Staphylococcus aureus [14]) of 25 µg/mL (≈ 51.9 µM).

Compound NCCn1cc(-c2nc(-c3c[nH]c4ccccc34)cs2)c2cc(F)ccc21 has an MIC (Pseudomonas aeruginosa [9]) of 4.5 µg/mL (≈ 12 µM), an IC50 (Staphylococcus aureus [10]) of 6.3 µg/mL (≈ 16.7 µM) and an IC50 (Staphylococcus aureus [11]) of 1.5 µg/mL (≈ 3.98 µM).

For NCCn1cc(-c2nc(-c3c[nH]c4ccccc34)cs2)c2ccccc21, the MIC (Pseudomonas aeruginosa [9]) was 22.7 µg/mL (≈ 63.3 µM), the IC50 (Staphylococcus aureus [10]) was 9.7 µg/mL (≈ 27.1 µM) and the IC50 (Staphylococcus aureus [11]) was 4.7 µg/mL (≈ 13.1 µM).

O=C(N[C@H](CO)[C@H](O)c1ccc([N+](=O)[O-])cc1)C(Cl)Cl [CHLORAMPHENICOL] showed an MIC (Klebsiella pneumoniae) of 12.5 µg/mL (≈ 38.7 µM), an MIC (Pseudomonas aeruginosa [12]) of 6.25 µg/mL (≈ 19.3 µM) and an MIC (Bacillus subtilis [13]) of 6.25 µg/mL (≈ 19.3 µM). For the same compound, the MIC (Staphylococcus aureus [14]) was 6.25 µg/mL (≈ 19.3 µM).
